Experimental data as given in patent US11780868B1, “Homoleptic metal coordination complexes as antifungal agents” (King Abdulaziz University, priority 2023, dated 2023).

Columns and labels:
C. albicans 5112 [1] = assay: Cell cycle analysis (Muse cell analyser); type: cell-based, Candida albicans; details: 4 h
Description: (§1) The effect of C1 on the cell cycle of C. albicans 4251 and C. albicans 5112 was determined using Cell Cycle kit MCH100106 in a Guava® Muse® Cell Analyser according to the manufacturer's instructions. The cells of the C. albicans (1×10^6 cells/mL) were exposed to C1 for 4 h at different concentrations (0.5×MIC and 1×MIC). Each sample was rinsed with fresh PBS after exposure, and the pellet was fixed in 1 mL of 70% ice-cold ethanol (Sigma Aldrich Co., USA). The Cell Cycle assay was prepared by mixing the 100 μL of Luminex® Cell Cycle dye and 100 μL of the prewashed fixed cells and incubated in the dark for 30 minutes at room temperature. All samples were analysed by a Guava® Muse® Cell Analyser (Luminex® A DiaSorin Company, USA). During the experiment, both the negative (without treatment) and positive control (10 mM H2O2 treated) were used.

C. albicans 4251 [2] = assay: Cell cycle analysis (Muse cell analyser); type: cell-based, Candida albicans; details: 4 h
Description: as §1

horse red blood cells = assay: Haemolytic activity; type: cell-based; details: horse RBC
Description: To determine the cytotoxicity of C1, horse red blood cells (H-RBC; NHLS, Johannesburg, South Africa) were used. The horse blood was centrifuged, and the cell pellet was secured and washed three times with cold PBS. The final pellet was dissolved in cold PBS to make a 10% H-RBC solution. From this solution, 15 mL of 1% H-RBC solution was again prepared with the help of PBS. Then, 1 mL was aliquoted and added to various concentrations (0.5×MIC, 1×MIC, 2×MIC and 4×MIC) of C1 in 2 mL Eppendorf tubes. The negative control consisted of the RBC solution mixed with PBS; while the positive control consisted of RBC mixed with 1% Triton X-100. The samples were incubated for 4 h at 37° C. Following incubation, the samples were centrifuged at 2000 rpm for 10 minutes and supernatant (200 μL) was transferred to a flat-bottomed 96-well microtiter plate and the absorbance was measured at 450 nm using a SpectraMax ID3 Multimode Plate Reader (Molecular Devices, LLC., USA). The percentage of haemolysis was calculated by using the following equation: […]

C. albicans 5112 [3] = assay: Cell count and viability assay (Muse cell analyser); type: cell-based, Candida albicans; details: C. albicans 5112 (Flz resistant), C1 at MFC, 24 h; untreated 86.8%
Description: (§2) Quantification of Live/Dead C. albicans cells in response to C1 was carried out. The actual count of viable and dead cells of C. albicans by treatment of C1 was monitored by Cell Count and Viability assay kit. An inoculum (1×10^6 cells/mL) of both Flz sensitive (C. albicans 4251) and resistant (C. albicans 5112) C. albicans strains was prepared followed by treatment with various concentrations of C1 (0.5×MIC, 1×MIC and MFC) for 24 h at 37° C. and 150 rpm. For the negative control, only inoculum treated with 1% DMSO was used and for the positive control, hydrogen peroxide (10 mM) was used in a 1:1 ratio with the inoculum. Following incubation, the cells were then washed in PBS and centrifuged at 4000 rpm for 5 minutes at 4° C. and the final pellet was resuspended in PBS. The Cell Count and Viability assay samples were prepared by mixing 190 μL of Luminex Cell Viability Dilution Buffer and 10 μL of the sample in a 1.5 mL Eppendorf tube and incubated in the dark for 5 min at room temperature. All samples were analysed by a Guava® Muse® Cell Analyser (Luminex A DiaSorin Company, USA).

C. albicans 4251 [4] = assay: as above; type: cell-based, Candida albicans; details: C. albicans 4251 (Flz susceptible), C1 at MFC, 24 h; untreated 90.9%
Description: as §2

C. albicans 5112 [5] = assay: JC-10 mitochondrial membrane potential assay; type: cell-based, Candida albicans; details: 4 h, negative control 2.92
Description: (§3) To examine the effect of C1 on the induction of cellular apoptosis in C. albicans cells, crucial apoptotic markers were observed. For this purpose, C. albicans 4251 and C. albicans 5112 cells were subjected to protoplast preparation by utilizing a method described previously by Srivastava et al. in 2020 through their research study. […] Later on, the cells were washed and incubated for 10 min at room temperature in protoplast buffer-1 (1M sorbitol, 0.05M tris base, 0.01M MgCl2, 0.03M DTT, pH 7.4). The cells were spun at 1500 rpm for 5 min and the pellet was resuspended in protoplast buffer-2 (1M sorbitol, 0.05M tris base, 0.01M MgCl2, 0.001M DTT, pH 7.4) supplemented with […] enzyme (1 μg/mL) and incubated for 1 h at room temperature. Afterwards, the cell suspension was again centrifuged, and the pellet was resuspended and incubated for 20 min at room temperature in protoplast buffer-3 (1M sorbitol, 0.05M tris base, 0.01M MgCl2, pH 7.4). A final washing (1500 rpm for 5 min) was given to the cells and the pellet consisting of C. albicans protoplasts was resuspended in fresh PBS and was stored at 4° C. until further use. Measurement of mitochondrial membrane potential in C. albicans was carried out and the potential of C1 in destabilising mitochondrial membrane potential (Δψm) in C. albicans was established by JC-10 mitochondrial membrane potential assay kit (Abeam, Cambridge, UK). The experiment was performed according to manufacturer instructions. 90 μL of prepared protoplast of C. albicans 4251 and C. albicans 5112 was added to a 96-well microplate (with black walls and clear bottom), followed by the addition of 50 μL/well of JC-10 dye-loading solution. The microplate was incubated for 1 hour at 37° C. in the dark. This was followed by the addition of 50 μL/well of assay buffer B. The microplate was then immediately centrifuged at 800 rpm for 2 minutes. The fluorescence intensity was monitored at an Ex/Em=490/530 nm (present in apoptotic cells, monomeric form and green fluorescence; represented as X) and 540/590 nm (present in live cells, dye aggregates and red fluorescence; represented as Y) using a SpectraMax® ID3 Multimode Plate Reader (Molecular Devices, LLC., USA). The ratio between the aggregate and monomeric forms was measured to find the change in mitochondrial membrane potential. The mitochondrial membrane depolarization is indicated by decreasing ratio values.

C. albicans 4251 [6] = assay: JC-10 mitochondrial membrane potential assay; type: cell-based, Candida albicans; details: 4 h, negative control 2.65
Description: as §3

**Q.** Which “cells in G0/G1 phase” value (C. albicans 5112 [1]; C. albicans 5112 (Flz resistant), 0.5×MIC) does the source give for `Brc1ccc([O][Co][O]c2ccc(Br)cc2C=Nc2ccc3c(c2)OCCO3)c(C=Nc2ccc3c(c2)OCCO3)c1` [Complex C1, [Co(L)2]] here?
**A.** 50.8%

**Q.** And the “cells in G0/G1 phase” value (C. albicans 5112 [1]; C. albicans 5112, 1×MIC)?
**A.** 94.1%

**Q.** And the “cells in G0/G1 phase” value (C. albicans 4251 [2]; C. albicans 4251 (Flz sensitive), 0.5×MIC)?
**A.** 62%

**Q.** And the “cells in G0/G1 phase” value (C. albicans 4251 [2]; C. albicans 4251, 1×MIC)?
**A.** 96.55%

**Q.** What about the “haemolytic activity (in words)” value (horse red blood cells) of the same compound?
**A.** considerably less haemolytic activity

**Q.** What about the haemolytic activity (horse red blood cells; 4×MIC, 4 h, 37° C.) of the same compound?
**A.** 10%

**Q.** And the live cells (C. albicans 5112 [3])?
**A.** 8.4%

**Q.** What about the live cells (C. albicans 4251 [4]) of the same compound?
**A.** 4.3%

**Q.** And the “average fluorescence ratio JC-10 aggregates/JC-10 monomers” value (C. albicans 5112 [5]; C. albicans 5112, 0.5×MIC)?
**A.** 2.24

**Q.** And the “average fluorescence ratio JC-10 aggregates/JC-10 monomers” value (C. albicans 5112 [5]; C. albicans 5112, 1×MIC)?
**A.** 1.71

**Q.** What about the “average fluorescence ratio JC-10 aggregates/JC-10 monomers” value (C. albicans 4251 [6]; C. albicans 4251, 0.5×MIC) of the same compound?
**A.** 2.04

**Q.** And the “average fluorescence ratio JC-10 aggregates/JC-10 monomers” value (C. albicans 4251 [6]; C. albicans 4251, 1×MIC)?
**A.** 1.6
